In patent publication US20090270373A1, “TREATMENT OF DOWN SYNDROM WITH BENZODIAZEPINE RECEPTOR ANTAGONISTS” (Cypress Biosciences, Inc., priority 2008, published 2009):

Tests used:
Ts65Dn mice = type: in vivo, mouse
Method: (§1) A 4-week longitudinal crossover study is carried out following the method outlined by Fernandez et al., supra. Wild-type and Ts65Dn mice (3-4 months of age) are randomly assigned to groups receiving daily i.p. injections of saline or flumazenil (1.0 mg/kg), and are submitted to four weekly repetitions of object recognition testing, in which the animals are serially presented with four different object sets. At the 2-week midpoint of the experimental period, wild-type and Ts65Dn mice that have been receiving saline are randomly segregated into groups that either continue to receive daily saline injections or begin to receive daily injections of flumazenil. Conversely, wild-type and Ts65Dn mice that have been chronically administered flumazenil in the first 2 weeks of testing are switched onto a saline regimen. Alongside saline and flumazenil, bilobalide (i.p. 5.0 mg/kg) may be evaluated as a positive control. Bilobalide is a picrotoxin-like compound that may safely be administered for the whole 4-week experiment.
(§2) Flumazenil may also be tested for its effects on declarative memory in the novel object recognition test and in a modified spontaneous alternation task. Wild-type and Ts65Dn mice may be administered flumazenil (3 mg/kg in milk via voluntary oral feeding or 1 mg/kg i.p.). The wild-type and Ts65Dn mice are administered from 5 to 30 doses of milk or milk-flumazenil (or saline or flumazenil solution i.p.). The mice are then subjected to two repetitions of novel object recognition testing or three daily T-maze sessions at the tail end of the treatment regimen. […] Comparison of treated and untreated Ts65Dn mice will provide controls for any possible arm bias in the spontaneous alternation task.
as §1, with “bretazenil” for “flumazenil”, “bretazenil.” for “flumazenil.”, “bretazenil,” for “flumazenil,”
as §2, with “Bretazenil may” for “Flumazenil may”, “administered bretazenil” for “administered flumazenil”

Down Syndrome patients = test: Cognition in Down Syndrome patients, double-blind cross-over (Example 3); type: in vivo, human; conditions: 5 and 20 mg
Method: Fifteen adult or adolescent Down Syndrome patients experiencing at least some level of cognitive impairment participate in a double-blind, cross-over comparison of […]. The drugs administered are flumazenil (5 and 20 mg), bretazenil (5 and 20 mg) or placebo. Subjects are randomly assigned to treatments according to a Williams Square design (Higgitt, supra (citing Williams, “Experimental designs balanced for the estimation of residual effects of treatments, Aust. J. Sci. Res. 2:149-168 (1949))). Each subject receives a different sequence of four treatments balanced for carry-over effects and separated by at least 1 week of wash-out period. […]
Psychophysiological indices to be measured include: EEG, skin conductance, finger tremor, critical flicker fusion threshold, blood pressure and pulse rate, key tapping rate, and reaction time. […]
EEG and evoked responses: These are recorded during the same EEG recording procedure. […] In addition, the four values are summed and each is expressed as a percentage of the total.
The averaged evoked responses are obtained from the 500 ms epoch of the EEG following each of the 32 click stimuli. […] The latency at each peak and peak-to-peak amplitudes are computed and recorded automatically. […]
Skin conductance, blood pressure and pulse rate can be measured by the method of Higgitt et al., supra. […]

SMILES: CCOC(=O)c1ncn2c1CN(C)C(=O)c1cc(F)ccc1-2 [flumazenil, 8-fluoro-5,6-dihydro-5-methyl-6-oxo-4H-imidazo[1,5-a]benzodiazepine-3-carboxylic acid ethyl ester]
- object recognition performance (Ts65Dn mice; 4-week crossover, flumazenil or bretazenil 1.0 mg/kg i.p. for 2 weeks, bilobalide 5.0 mg/kg i.p. throughout): normalized object recognition performance
- discrimination indices in the object recognition task (Ts65Dn mice; 5 to 30 doses, 3 mg/kg in milk orally or 1 mg/kg i.p.): on a par with those of wild-type mice
- novel object recognition testing, long term (Ts65Dn mice; up to at least 2 months after treatment, treated for at least about 15 days): long-term improvement
- indicators of cognition as compared to placebo (Down Syndrome patients): improvement in one or more indicators of cognition
